# Data published in article PMC11876601 (Molecular Systems Biology, 2025).
# Where two headings read alike, the source gives them in different places.
# Key:
# [1] = system: HuP-T4; test: cells; design: ATPlite luminescence viability of PDAC cell lines, 11-dose single-agent curves, 4-parameter fit; details: Homo sapiens, HuP-T4, 72 h, read-out: EC50 [nM]
# How it was run: (§1)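 cells (1000 to 5000 per well) seeded 24 h before drug addition in a combination screen at 0.2% final DMSO. Controls were drug-free wells (negative) and 5 µM staurosporine (positive).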
# [2] = system: PRKAB1; design: method as in Klaeger et al. (2017); details: lysate 4 cell line mix (Colo205, K-562, MV-4-11, and SK-N-BE(2)), Kinobeads y, ref Klaeger et al. (2017); cited from earlier work
# [3] = system: PANC-1; test: cells; design: ATPlite luminescence viability of PDAC cell lines, 11-dose single-agent curves, 4-parameter fit; details: Homo sapiens, PANC-1, 72 h, read-out: EC50 [nM]
# How it was run: as §1
# [4] = system: NTRK1; design: method as in Klaeger et al. (2017); details: lysate 4 cell line mix (Colo205, K-562, MV-4-11, and SK-N-BE(2)), Kinobeads y, ref Klaeger et al. (2017); cited from earlier work
# [5] = system: BTK; design: method as in Klaeger et al. (2017); details: lysate 4 cell line mix (Colo205, K-562, MV-4-11, and SK-N-BE(2)), Kinobeads y, ref Klaeger et al. (2017); cited from earlier work
# [6] = system: MAP2K5; design: method as in Klaeger et al. (2017); details: lysate 4 cell line mix (Colo205, K-562, MV-4-11, and SK-N-BE(2)), Kinobeads y, ref Klaeger et al. (2017); cited from earlier work
# [7] = molecular target: AXL; design: method as in Reinecke et al. (2023); details: 5 cell line mix lysate, Kinobeads ε, ref Reinecke et al. (2023), cited from earlier work
# [8] = system: PRKAB1; design: method as in Reinecke et al. (2023); details: PRKAB1, 5 cell line mix lysate, Kinobeads ε, ref Reinecke et al. (2023), cited from earlier work
# [9] = molecular target: FRK; design: method as in Reinecke et al. (2023); details: 5 cell line mix lysate, Kinobeads ε, ref Reinecke et al. (2023), cited from earlier work
# [10] = molecular target: SLK; design: method as in Reinecke et al. (2023); details: 5 cell line mix lysate, Kinobeads ε, ref Reinecke et al. (2023), cited from earlier work
# [11] = system: CSNK2A1;CSNK2A3; details: CSNK2A1;CSNK2A3, 5 cell line mix lysate, Kinobeads ε, ref Reinecke et al. (2023), cited from earlier work
# [12] = system: Dan-G; test: cells; design: ATPlite luminescence viability of PDAC cell lines, 11-dose single-agent curves, 4-parameter fit; details: 72 h, read-out: EC50 [nM]
# How it was run: as §1
# [13] = system: FAMPAC; test: cells; design: ATPlite luminescence viability of PDAC cell lines, 11-dose single-agent curves, 4-parameter fit; details: 72 h, read-out: EC50 [nM]
# How it was run: as §1
# [14] = system: Suit2-07; test: cells; design: ATPlite luminescence viability of PDAC cell lines, 11-dose single-agent curves, 4-parameter fit; details: 72 h, read-out: EC50 [nM]
# How it was run: as §1
compound,measurement,setting,value
C[C@@H]1COCCN1c1cc(-c2ccnn2C)c2ccnc(-c3ccn[nH]3)c2n1 [Elimusertib],EC50,[1],359 nM
C[C@]12O[C@H](C[C@]1(O)CO)n1c3ccccc3c3c4c(c5c6ccccc6n2c5c31)CNC4=O [Lestaurtinib],EC50,[2],1.79 µM
same,EC50,[3],> 10000 nM
same,EC50,[4],0.795 µM
same,EC50,[6],2.05 µM
COc1cc(N2CCC(N3CCN(C)CC3)CC2)ccc1Nc1ncc(Cl)c(Nc2ccccc2P(C)(C)=O)n1 [Brigatinib],Kd,[7]; read-out: KDapp,0.635 µM
same,EC50,[7],0.635 µM
same,pKDapp,[7],6.20
same,EC50,[8],0.507 µM
same,pKDapp,[8],6.47
same,Kd,[8]; read-out: KDapp,0.335 µM
same,Kd,[9]; read-out: KDapp,0.053 µM
same,EC50,[9],0.156 µM
same,pKDapp,[9],7.28
same,Kd,[10]; read-out: KDapp,0.466 µM
same,EC50,[10],0.523 µM
same,pKDapp,[10],6.33
same,EC50,[11],0.331 µM
same,pKDapp,[11],6.48
same,Kd,[11]; read-out: KDapp,0.331 µM
CCN1CCN(Cc2ccc(Nc3ncc(F)c(-c4cc(F)c5nc(C)n(C(C)C)c5c4)n3)nc2)CC1 [Abemaciclib],EC50,[12],> 10000 nM
same,EC50,[13],> 10000 nM
same,EC50,[14],250 nM
